Reference: ChEMBL document CHEMBL1201862, “PubChem BioAssay data set” (2004)
Activity calls are given as the source filed them.

How the values were obtained:
Mucolipin-3 = target: T1, Mucolipin-3 (Homo sapiens, UniProt Q8TDD5); experiment: Dose response cell-based high-throughput screening assay for agonists of the transient receptor potential channel ML3 (TRPML3). [Related pubchem assays: 1526, 1424, 1448 ]; type: functional
T1 sequence (Q8TDD5 whole entry): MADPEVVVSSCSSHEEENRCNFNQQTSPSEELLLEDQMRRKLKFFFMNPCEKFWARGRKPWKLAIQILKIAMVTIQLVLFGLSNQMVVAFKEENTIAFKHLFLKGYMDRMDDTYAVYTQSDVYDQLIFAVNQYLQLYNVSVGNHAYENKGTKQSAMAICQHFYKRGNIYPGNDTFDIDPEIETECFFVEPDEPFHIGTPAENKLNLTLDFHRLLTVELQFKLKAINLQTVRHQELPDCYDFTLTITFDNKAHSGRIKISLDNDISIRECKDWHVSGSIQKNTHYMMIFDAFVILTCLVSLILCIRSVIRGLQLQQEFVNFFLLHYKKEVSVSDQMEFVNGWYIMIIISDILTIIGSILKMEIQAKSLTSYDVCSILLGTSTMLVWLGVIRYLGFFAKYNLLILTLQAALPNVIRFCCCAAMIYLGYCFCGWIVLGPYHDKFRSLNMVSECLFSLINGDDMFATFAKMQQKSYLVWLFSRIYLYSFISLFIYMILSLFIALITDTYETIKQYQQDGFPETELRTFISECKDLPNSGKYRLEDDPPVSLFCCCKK

Ion channel NompC = Ion channel NompC (Danio rerio, UniProt Q7T1G6); experiment: Fluorescence counterscreen assay for TRPML3 agonists: dose response cell-based high-throughput screening assay to identify agonists of the transient receptor potential channel N1 (TRPN1). [Related pubchem assays: 1526, 1424, 1448 ]; type: functional
Sequence of Ion channel NompC (Q7T1G6 whole entry): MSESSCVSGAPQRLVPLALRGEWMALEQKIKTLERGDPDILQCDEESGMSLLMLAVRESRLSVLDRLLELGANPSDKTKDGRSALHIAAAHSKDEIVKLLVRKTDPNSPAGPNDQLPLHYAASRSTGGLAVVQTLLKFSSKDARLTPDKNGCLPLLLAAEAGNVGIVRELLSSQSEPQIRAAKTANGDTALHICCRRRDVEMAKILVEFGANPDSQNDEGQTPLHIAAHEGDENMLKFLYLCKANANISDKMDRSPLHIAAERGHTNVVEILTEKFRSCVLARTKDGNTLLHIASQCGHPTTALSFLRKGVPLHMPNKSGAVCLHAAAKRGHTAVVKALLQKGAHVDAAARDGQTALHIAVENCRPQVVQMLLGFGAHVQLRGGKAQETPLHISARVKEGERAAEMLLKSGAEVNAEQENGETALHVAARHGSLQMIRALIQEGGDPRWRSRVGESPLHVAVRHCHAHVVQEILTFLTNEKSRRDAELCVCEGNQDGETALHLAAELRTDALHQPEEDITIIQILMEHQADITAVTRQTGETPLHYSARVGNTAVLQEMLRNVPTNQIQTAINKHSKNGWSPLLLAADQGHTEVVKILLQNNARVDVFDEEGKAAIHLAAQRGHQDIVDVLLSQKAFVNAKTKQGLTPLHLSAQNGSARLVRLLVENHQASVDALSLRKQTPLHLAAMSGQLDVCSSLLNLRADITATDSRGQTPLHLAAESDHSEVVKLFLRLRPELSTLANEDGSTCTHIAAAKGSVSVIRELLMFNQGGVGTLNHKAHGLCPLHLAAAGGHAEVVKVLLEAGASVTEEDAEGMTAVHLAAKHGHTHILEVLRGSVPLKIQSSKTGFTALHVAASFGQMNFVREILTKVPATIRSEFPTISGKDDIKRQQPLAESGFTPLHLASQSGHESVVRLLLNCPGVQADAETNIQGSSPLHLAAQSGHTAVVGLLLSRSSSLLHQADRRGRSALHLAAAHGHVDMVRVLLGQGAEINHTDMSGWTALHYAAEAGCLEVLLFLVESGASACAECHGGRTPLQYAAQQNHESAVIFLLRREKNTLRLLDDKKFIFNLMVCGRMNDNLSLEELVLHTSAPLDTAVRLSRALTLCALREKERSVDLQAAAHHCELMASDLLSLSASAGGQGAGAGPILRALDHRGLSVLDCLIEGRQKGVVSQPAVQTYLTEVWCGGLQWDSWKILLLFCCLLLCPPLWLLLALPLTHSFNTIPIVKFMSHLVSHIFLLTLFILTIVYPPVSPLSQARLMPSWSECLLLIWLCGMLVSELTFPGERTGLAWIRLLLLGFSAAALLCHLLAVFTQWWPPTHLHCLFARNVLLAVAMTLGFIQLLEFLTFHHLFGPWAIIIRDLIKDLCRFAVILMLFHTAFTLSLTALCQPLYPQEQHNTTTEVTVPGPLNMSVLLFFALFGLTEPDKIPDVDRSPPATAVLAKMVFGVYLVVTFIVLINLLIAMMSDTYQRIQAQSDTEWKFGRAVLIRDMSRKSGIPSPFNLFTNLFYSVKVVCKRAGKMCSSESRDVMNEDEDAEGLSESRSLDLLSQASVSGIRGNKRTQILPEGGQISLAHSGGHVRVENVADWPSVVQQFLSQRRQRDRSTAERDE

[1] = target: T2, Mannose-6-phosphate isomerase (Homo sapiens, UniProt P34949); experiment: MPI inhibition at elevated mannose 6-phosphate – biochemical, fluorescence intensity, high mannose 6-phosphate, primary screen (AID 1220)
T2 sequence (P34949 whole entry): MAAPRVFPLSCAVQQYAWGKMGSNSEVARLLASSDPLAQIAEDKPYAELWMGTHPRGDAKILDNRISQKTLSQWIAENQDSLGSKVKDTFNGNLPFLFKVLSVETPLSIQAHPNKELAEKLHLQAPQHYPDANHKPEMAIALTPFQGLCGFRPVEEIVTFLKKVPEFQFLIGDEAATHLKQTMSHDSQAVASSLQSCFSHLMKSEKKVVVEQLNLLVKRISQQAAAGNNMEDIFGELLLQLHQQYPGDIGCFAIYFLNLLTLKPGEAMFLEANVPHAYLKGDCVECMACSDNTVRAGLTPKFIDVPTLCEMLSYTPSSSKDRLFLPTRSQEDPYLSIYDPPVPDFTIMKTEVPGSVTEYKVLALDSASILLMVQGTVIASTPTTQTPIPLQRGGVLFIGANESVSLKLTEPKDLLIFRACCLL

[2] = Luminescence Cell-Based Dose Retest to Confirm Inhibitors of Cancer Stem Cells. [Related pubchem assays (depositor defined):AID2717, AID2721]; type: functional; conditions: Homo sapiens
fMet-Leu-Phe receptor = target: T3, fMet-Leu-Phe receptor (Homo sapiens, UniProt P21462); experiment: formyl peptide receptor binders – dose response (AID 519); type: functional
T3 sequence (P21462 whole entry): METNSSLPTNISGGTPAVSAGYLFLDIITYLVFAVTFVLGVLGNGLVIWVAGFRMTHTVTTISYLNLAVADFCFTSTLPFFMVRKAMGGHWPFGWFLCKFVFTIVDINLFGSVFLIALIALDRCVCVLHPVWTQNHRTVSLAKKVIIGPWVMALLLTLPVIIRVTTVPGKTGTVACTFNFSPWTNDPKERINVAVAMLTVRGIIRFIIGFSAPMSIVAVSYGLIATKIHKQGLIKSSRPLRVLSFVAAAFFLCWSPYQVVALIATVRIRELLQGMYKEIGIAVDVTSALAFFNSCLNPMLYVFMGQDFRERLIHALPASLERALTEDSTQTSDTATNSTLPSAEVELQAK

[3] = target: Sphingosine 1-phosphate receptor 2 (Homo sapiens, UniProt O95136); experiment: Dose Response Cell Based Assay for Antagonists of the S1P2 Receptor. [Related pubchem assays: 856, 736 ]; type: functional
Sequence of Sphingosine 1-phosphate receptor 2 (O95136 whole entry): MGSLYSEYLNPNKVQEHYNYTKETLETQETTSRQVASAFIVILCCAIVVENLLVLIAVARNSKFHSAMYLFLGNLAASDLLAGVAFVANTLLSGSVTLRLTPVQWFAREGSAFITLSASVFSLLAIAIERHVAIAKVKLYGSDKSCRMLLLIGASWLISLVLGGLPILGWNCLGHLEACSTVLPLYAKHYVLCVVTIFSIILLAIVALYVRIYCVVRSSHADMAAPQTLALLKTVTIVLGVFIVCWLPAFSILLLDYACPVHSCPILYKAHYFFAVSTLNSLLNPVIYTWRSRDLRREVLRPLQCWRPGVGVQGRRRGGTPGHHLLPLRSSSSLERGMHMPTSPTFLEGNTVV

[4] = tested on: Streptococcus sp. 'group A'; experiment: Streptococcus pyogenes SK(-)GAS viability under kanamycin – luminescence, BacTiterGlo, confirmation, counter-screen for streptokinase expression inhibitor project, dose response (AID 1900); type: functional, organism-based
BJ [5] = experiment: BJ-TERT fibroblast viability loss – cell-based, RAS-independent, luminescence, dose response (AID 1933); type: functional; conditions: Homo sapiens
BJ [6] = experiment: cells; type: functional, cell-based; conditions: Homo sapiens
[7] = viability of PTEN-deleted HCT116 cells – cell-based, HCT116 PTEN knockout, dose response (AID 1047); type: functional;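 note: HCT116 colon tumor cells with PTEN knocked out; cells exposed to compound for 60 hours before readout; potency for loss of cell viability measured by luminescence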
[8] = viability of HCT116 lacking mutant beta-catenin – cell-based, human colon tumor, dose response (AID 1045); type: functional;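 note: HCT116 colon tumor cells with beta catenin knocked out; cells exposed to compound for 60 hours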
BJ [9] = experiment: BJ-TERT-LT-ST fibroblast viability loss – cell-based, RAS-independent, luminescence, dose response (AID 1935); type: functional; conditions: Homo sapiens;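 note: BJ fibroblasts immortalized with TERT plus LT and ST oncogenes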
[10] = DRD fibroblast viability loss – cell-based, non-viral oncogenic, luminescence, dose response (AID 1934); type: functional; conditions: Homo sapiens
Streptococcus = experiment: GAS UMAA2166 growth inhibition – luminescence, BacTiterGlo, counter-screen for streptokinase expression inhibitor project, dose response (AID 1915); type: functional, organism-based;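 note: potency for reduction of bacterial viability or growth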
BJ [11] = experiment: growth inhibition of engineered Ras-driven BJ cells – cell-based, alamar blue fluorescence, cherrypicked samples, dose response (AID 2631); type: functional; conditions: Homo sapiens;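 note: confirmatory dose-response assay in RAS-dependent BJ fibroblasts engineered with TERT, LT and ST, with cytotoxicity read by fluorescence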
[12] = target: T4, Corticotropin-releasing factor receptor 2/Corticotropin-releasing factor-binding protein (Homo sapiens, UniProt P24387+Q13324); experiment: activators of CRF receptor 2 with binding protein – uHTS hits, confirmation (AID 602473); type: functional; conditions: read-out: EC50_Mean
T4 sequence (Q13324 whole entry): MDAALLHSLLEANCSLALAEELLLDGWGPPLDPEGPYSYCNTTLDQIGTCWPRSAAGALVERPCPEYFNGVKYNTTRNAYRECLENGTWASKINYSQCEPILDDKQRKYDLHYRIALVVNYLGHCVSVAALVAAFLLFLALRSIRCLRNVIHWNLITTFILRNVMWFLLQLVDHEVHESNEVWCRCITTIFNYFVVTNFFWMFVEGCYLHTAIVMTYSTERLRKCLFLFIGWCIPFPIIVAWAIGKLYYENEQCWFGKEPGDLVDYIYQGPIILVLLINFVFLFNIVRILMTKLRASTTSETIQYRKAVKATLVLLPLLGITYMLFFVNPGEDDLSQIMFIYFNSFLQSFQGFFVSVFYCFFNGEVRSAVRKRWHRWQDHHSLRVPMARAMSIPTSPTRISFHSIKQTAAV
T4 sequence (P24387 whole entry): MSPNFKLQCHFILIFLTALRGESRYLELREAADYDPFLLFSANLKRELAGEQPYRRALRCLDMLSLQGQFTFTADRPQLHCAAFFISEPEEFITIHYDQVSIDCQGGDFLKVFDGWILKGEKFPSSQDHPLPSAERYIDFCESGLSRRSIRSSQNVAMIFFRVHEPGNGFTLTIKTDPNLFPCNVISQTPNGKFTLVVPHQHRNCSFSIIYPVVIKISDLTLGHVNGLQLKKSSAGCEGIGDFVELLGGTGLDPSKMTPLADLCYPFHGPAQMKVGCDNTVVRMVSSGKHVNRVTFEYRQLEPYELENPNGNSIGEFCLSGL

[13] = target: T5, Histone-lysine N-methyltransferase NSD2 (Homo sapiens, UniProt O96028); type: biochemical
T5 sequence (O96028 whole entry): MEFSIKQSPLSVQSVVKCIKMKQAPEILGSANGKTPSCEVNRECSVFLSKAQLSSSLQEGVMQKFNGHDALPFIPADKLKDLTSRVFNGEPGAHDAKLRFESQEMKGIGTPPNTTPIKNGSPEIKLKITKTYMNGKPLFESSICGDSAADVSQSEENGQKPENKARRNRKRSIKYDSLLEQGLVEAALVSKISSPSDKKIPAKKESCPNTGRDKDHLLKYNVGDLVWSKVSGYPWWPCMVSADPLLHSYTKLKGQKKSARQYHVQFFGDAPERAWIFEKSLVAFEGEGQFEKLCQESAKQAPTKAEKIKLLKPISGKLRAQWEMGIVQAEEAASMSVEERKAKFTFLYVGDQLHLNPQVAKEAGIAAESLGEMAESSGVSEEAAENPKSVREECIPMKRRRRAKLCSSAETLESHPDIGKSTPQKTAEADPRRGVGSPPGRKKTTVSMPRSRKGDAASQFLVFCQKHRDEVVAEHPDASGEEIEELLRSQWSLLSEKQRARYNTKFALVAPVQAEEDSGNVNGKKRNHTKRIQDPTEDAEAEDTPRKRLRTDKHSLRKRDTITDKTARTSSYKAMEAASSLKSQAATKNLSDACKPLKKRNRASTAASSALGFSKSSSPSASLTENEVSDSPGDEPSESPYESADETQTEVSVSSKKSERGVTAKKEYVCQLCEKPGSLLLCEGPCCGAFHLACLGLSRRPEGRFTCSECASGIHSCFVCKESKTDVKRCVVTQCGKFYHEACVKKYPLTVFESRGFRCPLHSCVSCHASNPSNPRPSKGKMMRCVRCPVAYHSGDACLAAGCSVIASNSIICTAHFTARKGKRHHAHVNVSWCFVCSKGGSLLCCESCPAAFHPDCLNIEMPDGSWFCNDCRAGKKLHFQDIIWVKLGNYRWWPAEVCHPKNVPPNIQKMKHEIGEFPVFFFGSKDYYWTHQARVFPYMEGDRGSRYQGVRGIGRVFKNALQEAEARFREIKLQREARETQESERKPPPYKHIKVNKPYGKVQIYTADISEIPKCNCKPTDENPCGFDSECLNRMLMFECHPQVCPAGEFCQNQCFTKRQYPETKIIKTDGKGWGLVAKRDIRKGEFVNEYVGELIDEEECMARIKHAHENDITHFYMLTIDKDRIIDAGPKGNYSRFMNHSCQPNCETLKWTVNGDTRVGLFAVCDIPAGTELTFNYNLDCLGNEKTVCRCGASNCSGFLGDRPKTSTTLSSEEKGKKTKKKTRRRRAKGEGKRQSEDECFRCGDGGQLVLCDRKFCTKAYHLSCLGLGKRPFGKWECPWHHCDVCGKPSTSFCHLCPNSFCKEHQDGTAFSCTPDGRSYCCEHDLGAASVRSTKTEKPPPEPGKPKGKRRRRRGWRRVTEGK

[14] = NIH-3T3 fibroblast cytotoxicity, dose response, cytotoxicity control, cell-based, fluorescence, Alamar Blue, secondary assay (AID 2327); type: functional;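 note: NIH-3T3 mouse fibroblasts cultured with fluconazole at 8 µg/mL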
[15] = fluconazole-exposed Candida albicans growth modulators – fluorescence, retest, confirmation (AID 2467); type: functional, cell-based
[16] = microbe, parasite or virus in culture; type: functional; conditions: Mycobacterium tuberculosis
[17] = THP-1 cell cytotoxicity, dose response, cytotoxicity control for non-replicating M. tuberculosis project (AID 489025); type: functional
[18] = HepG2 cell cytotoxicity, dose response, cytotoxicity control for non-replicating M. tuberculosis project (AID 489018); type: functional; conditions: Mycobacterium tuberculosis
[19] = Vero E6 cell cytotoxicity, dose response, cytotoxicity control for non-replicating M. tuberculosis project, secondary assay (AID 492998); type: functional, VeroE6; conditions: Vero C1008
cells = type: functional
INS1 = experiment: INS-1E survival protection against cytokine death – cell-based, luminescence, retest, dose response (AID 449756); type: functional; conditions: Rattus norvegicus;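 note: cell death triggered by IL-1 beta plus TNF-alpha plus IFN-gamma mixture; protective hits raise ATP signal compared with cytokine alone wells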

CN(CC(=O)ONC(=N)c1cccc([N+](=O)[O-])c1)S(=O)(=O)c1ccccc1
EC50 (Mucolipin-3): 12.4 µM (not active) | EC50 (Ion channel NompC): > 29.9 µM (not active)

O=C(NCCN1CCOCC1)NC1(C(F)(F)F)Oc2ccc(Cl)cc2O1 (stereo not drawn)
IC50 [1]: > 50 µM (not active) | AC50 [2]: 7.37 µM (active) | Ki (fMet-Leu-Phe receptor): > 66.7 µM (inactive)

COC(=O)c1cnc(N2CCCN(S(=O)(=O)c3ccccc3)CC2)nc1C(F)(F)F
EC50 (Mucolipin-3): > 29.9 µM (not active) | EC50 (Ion channel NompC): > 29.9 µM (not active)

CCN1/C(=C\C=C\C2=[N+](CC)c3ccccc3C2(C)C)C(C)(C)c2ccccc21.[O-][Cl+3]([O-])([O-])[O-]
IC50 [3]: 0.587 µM (active) | EC50 [4]: 5.96 µM (active) | EC50 (BJ [5]): 0.395 µM (inconclusive) | EC50 (BJ [6]): 0.664 µM (active) | EC50 [7]: < 0.059 µM (active) | EC50 [8]: < 0.059 µM (active) | EC50 (BJ [9]): 2.01 µM (active) | EC50 [10]: 0.903 µM (active) | EC50 (Streptococcus): 19.5 µM (active) | EC50 (BJ [11]): 0.273 µM (active) | EC50 [12]: 3.74 µM (active) | AC50 [13]: > 20 µM (inactive)

CCOC(=O)N1CCN(Cc2cc(Cl)c3cccnc3c2O)CC1
EC50 [14]: > 150 µM (inactive) | EC50 [15]: 1.28 µM (active) | CC50 [16]: 4.95 µM (active) | IC50 [1]: 11.8 µM (active) | CC50 [17]: 4.35 µM (active) | CC50 [18]: 11 µM (active) | CC50 [19]: 2.64 µM (active) | IC50 (cells): 10.9 µM (active) | AC50 (INS1): 3.13 µM (active)
